{"source": "ChEMBL document CHEMBL3751755", "about": "“Developing steroidal aromatase inhibitors-an effective armament to win the battle against breast cancer” (Eur J Med Chem, 2015)", "key": {"[1]": {"molecular_target": "T1, Aromatase (Rattus norvegicus, UniProt P22443)", "T1 sequence (P22443 whole entry)": "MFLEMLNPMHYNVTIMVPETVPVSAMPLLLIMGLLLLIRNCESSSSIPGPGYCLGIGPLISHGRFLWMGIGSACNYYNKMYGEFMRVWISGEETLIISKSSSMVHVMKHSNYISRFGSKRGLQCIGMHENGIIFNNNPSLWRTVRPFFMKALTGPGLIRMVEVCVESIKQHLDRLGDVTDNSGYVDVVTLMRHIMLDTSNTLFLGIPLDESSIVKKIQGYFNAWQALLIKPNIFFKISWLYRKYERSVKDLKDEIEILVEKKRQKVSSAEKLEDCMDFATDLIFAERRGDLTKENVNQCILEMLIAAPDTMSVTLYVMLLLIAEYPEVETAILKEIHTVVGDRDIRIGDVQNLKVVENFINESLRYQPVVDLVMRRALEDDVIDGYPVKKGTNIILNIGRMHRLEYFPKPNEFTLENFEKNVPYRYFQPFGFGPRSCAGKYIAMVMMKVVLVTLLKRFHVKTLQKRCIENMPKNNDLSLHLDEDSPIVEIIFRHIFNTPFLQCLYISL", "experiment": "Inhibition of aromatase in denucleated ovarian fraction extracted from PMSG pretreated Wistar rat using testosterone as substrate at 50 uM by radioimmuno assay"}, "[2]": {"experiment": "Cytotoxicity against human PC3 cells after 48 hrs by MTT assay", "type": "functional, cell-based", "conditions": "PC-3, 48 h"}, "[3]": {"tested_on": "HeLa", "experiment": "Cytotoxicity against human HeLa cells after 48 hrs by MTT assay", "type": "functional, cell-based"}, "[4]": {"molecular_target": "T2, Aromatase (Homo sapiens, UniProt P11511)", "T2 sequence (P11511 whole entry)": "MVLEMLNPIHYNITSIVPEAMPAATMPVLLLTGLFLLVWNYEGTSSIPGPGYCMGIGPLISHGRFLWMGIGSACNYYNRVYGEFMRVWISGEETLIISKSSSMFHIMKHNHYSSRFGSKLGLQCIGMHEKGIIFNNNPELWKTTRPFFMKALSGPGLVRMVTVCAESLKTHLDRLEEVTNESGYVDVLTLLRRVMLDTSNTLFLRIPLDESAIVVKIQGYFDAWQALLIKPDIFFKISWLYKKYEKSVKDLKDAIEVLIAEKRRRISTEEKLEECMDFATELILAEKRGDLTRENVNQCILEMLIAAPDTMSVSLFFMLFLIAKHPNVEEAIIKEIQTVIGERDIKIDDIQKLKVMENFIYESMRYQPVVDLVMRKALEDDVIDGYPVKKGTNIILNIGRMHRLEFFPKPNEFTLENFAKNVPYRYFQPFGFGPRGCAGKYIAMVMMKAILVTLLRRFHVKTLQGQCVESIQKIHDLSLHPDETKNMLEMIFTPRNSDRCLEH", "experiment": "Inhibition of human aromatase extracted from placental microsomes assessed as 3H2O formation from [1b,2b-3H] testosterone preincubated for 5 mins followed by protein addition measured at 7 to 21 mins by liquid scintillation counting analysis"}, "[5]": {"molecular_target": "T2, Aromatase", "experiment": "Competitive inhibition of human aromatase extracted from placental microsomes by Dixon plot analysis in presence of [1,2-3H]androstenedione"}, "[6]": {"molecular_target": "T2, Aromatase", "experiment": "Competitive inhibition of human placental aromatase in presence of testosterone"}, "[7]": {"molecular_target": "T1, Aromatase", "experiment": "Competitive inhibition of aromatase in ovarian fraction extracted from PMSG pretreated Wistar rat by double reciprocal plot analysis in presence of testosterone"}, "[8]": {"molecular_target": "T2, Aromatase", "experiment": "Inhibition of aromatase (unknown origin)", "parameters": "inhibition (INH): concentration or dose not given beside the values", "conditions": "human"}, "[9]": {"molecular_target": "T2, Aromatase", "experiment": "Inhibition of aromatase (unknown origin) at 5 uM relative to control"}, "[10]": {"molecular_target": "T2, Aromatase", "experiment": "Inhibition of human aromatase extracted from placental microsomes using [1beta-3H]androstenedione as substrate after 20 mins by scintillation counting analysis"}, "[11]": {"molecular_target": "T1, Aromatase", "experiment": "Inhibition of aromatase in denucleated ovarian fraction extracted from PMSG pretreated Wistar rat using testosterone as substrate at 10 uM by radioimmuno assay"}}}
{"compound": "C[C@]12CC[C@@H]3c4ccc(OCc5ccccc5)cc4CC[C@H]3[C@@H]1CC(=O)OC2", "values": [{"measurement": "inhibition at 50 µM", "setting": "[1]", "result": 26.7, "unit": "%"}]}
{"compound": "C=C1C[C@@H]2[C@H]([C@H](O)C[C@]3(C)C(=O)CC[C@@H]23)[C@@]2(C)C=CC(=O)C=C12", "values": [{"measurement": "IC50", "setting": "[2]", "result": 24.9, "unit": "µM"}, {"measurement": "IC50", "setting": "[3]", "result": 16.8, "unit": "µM"}]}
{"compound": "COc1cc(/C=C2\\C[C@H]3[C@@H]4CCC5=CC(=O)CC[C@]5(C)[C@H]4CC[C@]3(C)C2=O)ccc1OCCCn1ccnc1", "values": [{"measurement": "IC50", "setting": "[4]", "result": 4.4, "unit": "µM"}]}
{"compound": "C[C@]12CC[C@H]3[C@@H](CCC4=CCCC[C@@]43CO)[C@@H]1CCC2=O", "values": [{"measurement": "Ki", "setting": "[5]", "result": 0.0125, "unit": "µM"}]}
{"compound": "C[C@]12CCC(=O)C3=C1C(=Nc1ccccc1S3)C[C@@H]1[C@@H]2CC[C@]2(C)C(=O)CC[C@@H]12", "values": [{"measurement": "IC50", "setting": "[6]", "result": 42.3, "unit": "µM"}]}
{"compound": "CC(=O)[C@@]1(C)CC[C@H]2[C@@H](CCC3=CC(=O)CC[C@@]32C)C1CC#N", "note": "(stereo partly specified)", "values": [{"measurement": "Ki", "setting": "[7]", "result": 0.27, "unit": "µM"}, {"measurement": "inhibition (INH)", "setting": "[8]", "result": 46.5, "unit": "%"}]}
{"compound": "CC(=O)O[C@H]1CC[C@@]2(C)C(=CC[C@H]3C(CC#N)[C@@](C)(CBr)CC[C@@H]32)C1", "note": "(stereo partly specified)", "values": [{"measurement": "inhibition at 5 µM", "setting": "[9]", "result": 19.4, "unit": "%"}]}
{"compound": "C[C@]12C=CC(=O)C=C1CC[C@@H]1[C@@H]2CC[C@]2(C)C(=O)/C(=C/c3ccc4c(c3)OCO4)C[C@@H]12", "values": [{"measurement": "IC50", "setting": "[10]", "result": 6.4, "unit": "µM"}]}
{"compound": "C[C@]12CC[C@@H]3c4ccc(O)cc4CC[C@H]3[C@@H]1CC(=O)OC2", "values": [{"measurement": "inhibition at 10 µM", "setting": "[11]", "result": 1.5, "unit": "%"}]}
